Measurements: the supplement of paper PMC10307832

Assays:
Test in all cases: relative viability (nuclei count vs DMSO), 5 days (fraction); higher = more cells survive
[1] = compound: Nc1ncn([C@H]2C[C@H](O)[C@@H](CO)O2)c(=O)n1 [Decitabine] + COc1cc2c(Oc3ccc(NC(=O)C4(C(=O)Nc5ccc(F)cc5)CC4)cc3F)ccnc2cc1OCCCN1CCOCC1 [Foretinib] (partner 0.25 µM)
Procedure, shortened: (§1)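 Medians of duplicate plates are given as relative viability. That measure is the nuclei count in treated wells divided by the count in vehicle wells. Counts were taken on 4× images of lung cancer cell lines in 1536-well plates, 5 days after pin-tool dosing the day after seeding with one drug alone or a fixed anchor-drug dose plus five library-drug doses (not always all listed) in √10 steps.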

[2] = compound: Nc1ncn([C@H]2C[C@H](O)[C@@H](CO)O2)c(=O)n1 [Decitabine] + C[C@@H](Oc1cc(-c2cnn(C3CCNCC3)c2)cnc1N)c1c(Cl)ccc(F)c1Cl [Crizotinib] (partner 1 µM)
Procedure, shortened: as §1

[3] = compound: COc1cc2c(Oc3ccc4[nH]c(C)cc4c3F)ncnc2cc1OCCCN1CCCC1 [Cediranib] + CCNC(=O)c1noc(-c2cc(C(C)C)c(O)cc2O)c1-c1ccc(CN2CCOCC2)cc1 [Luminespib] (partner 0.01 µM)
Procedure, shortened: as §1

Cell Line	relative viability ([1]; first compound 0.04 µM)	relative viability ([1]; first compound 0.1265 µM)	relative viability ([1]; first compound 0.4 µM)	relative viability ([1]; first compound 1.265 µM)	relative viability ([1]; first compound 4 µM)	relative viability ([2]; first compound 0.04 µM)	relative viability ([2]; first compound 0.1265 µM)	relative viability ([2]; first compound 0.4 µM)	relative viability ([2]; first compound 1.265 µM)	relative viability ([2]; first compound 4 µM)	relative viability ([3]; first compound 0.04 µM)	relative viability ([3]; first compound 0.1265 µM)	relative viability ([3]; first compound 0.4 µM)	relative viability ([3]; first compound 1.265 µM)	relative viability ([3]; first compound 4 µM)
201T	1.18	1.35	1.02	0.744	0.727	1.02	1	1.15	0.965	0.914	1.2	1.34	1	1.03	1.03
A549	0.719	0.634	0.448	0.143	0.0978	0.498	0.658	0.348	0.13	0.102	–	–	–	–	–
A-427	0.653	0.635	0.354	0.264	0.242	0.489	0.403	0.316	0.205	0.165	1.25	–	0.84	0.906	0.928
ABC-1	0.979	0.912	0.763	0.839	0.67	0.771	0.907	0.627	0.728	0.542	0.885	0.714	–	0.44	0.486
BEN	0.596	0.566	0.35	0.437	0.38	0.914	0.786	0.623	0.469	0.453	0.379	–	0.338	0.201	0.381
CAL-12T	1.08	0.883	–	0.618	0.419	0.612	0.664	0.174	0.416	0.222	0.242	0.369	0.364	0.359	0.361
COR-L23	0.597	0.605	0.473	0.353	0.246	0.332	0.33	0.332	0.22	0.184	0.778	0.768	0.58	0.571	0.626
COR-L 105	1.2	0.98	0.881	0.633	0.554	0.596	0.633	0.573	0.356	0.319	0.706	0.726	0.731	0.864	0.68
Calu-6	0.698	0.525	0.275	0.243	0.217	0.495	0.478	0.283	0.227	0.224	–	–	–	–	–
ChaGo-K-1	0.819	0.683	0.507	0.376	0.421	0.962	0.857	0.631	0.6	0.605	0.588	0.621	0.525	0.638	0.738
EBC-1	0.0865	0.0957	0.106	0.0836	0.0866	0.146	0.176	0.193	0.144	0.148	–	–	–	–	–
EKVX	0.65	0.995	0.605	0.353	0.365	0.828	0.73	0.503	0.396	0.364	0.965	0.969	0.822	0.742	0.995
HCC-44	–	–	–	–	–	0.641	0.72	0.28	0.449	0.374	–	–	0.986	1.07	0.843
HCC-78	0.648	0.58	0.588	0.455	0.433	0.354	0.382	0.395	0.272	0.255	–	–	–	–	–
HCC-366	0.825	0.743	0.448	0.211	0.128	0.237	0.362	0.121	0.102	0.0419	–	–	–	–	–
IA-LM	0.543	0.502	0.282	0.204	0.108	0.342	0.274	0.2	0.191	0.102	–	–	–	–	–
NCI-H522	–	–	–	–	–	–	–	–	–	–	1.13	–	1.17	1.03	1.02
NCI-H1299	1.09	1.13	1.03	1.03	1.01	0.979	0.991	0.956	0.85	0.856	–	–	–	–	–
NCI-H1395	0.798	0.801	0.687	0.586	0.55	–	–	–	–	–	0.787	0.569	0.734	0.754	0.535
NCI-H1623	0.706	0.822	0.657	0.53	0.549	–	–	–	–	–	0.528	–	0.425	0.457	0.526
NCI-H1703	0.371	0.341	0.455	0.377	0.271	0.397	0.419	0.214	0.263	0.134	–	–	–	–	–
NCI-H1792	–	–	–	–	–	0.97	1.01	0.948	0.501	0.553	0.429	0.644	0.479	0.538	0.508
NCI-H1793	0.631	0.641	0.533	0.351	0.406	–	–	–	–	–	0.182	0.176	0.224	–	0.201
NCI-H2342	1.29	1.03	1.1	0.674	0.568	–	–	–	–	–	0.858	0.801	0.919	0.704	0.82
SW 900	0.489	0.305	0.206	0.167	0.202	–	–	–	–	–	0.167	0.186	0.195	0.188	0.169
